From the NIST ThermoML archive (doi:10.1021/je100145f)

Assay: xn = mol fraction of the nth substance listed
Conditions: 101 kPa, Liquid, Vibrating tube method

N#Cc1ccccc1 [benzonitrile] + CCCCCCCCC
mass density [kg/m3]
Conditions | 285.15 K | 288.15 K | 293.15 K | 298.15 K | 303.15 K | 308.15 K | 313.15 K
x1 = 0.0239 | 728.45 | 726.13 | 722.24 | 718.34 | 714.42 | 710.49 | 706.54
x1 = 0.0499 | 732.81 | 730.47 | 726.57 | 722.65 | 718.72 | 714.77 | 710.81
x1 = 0.0989 | 741.4 | 739.05 | 735.11 | 731.16 | 727.2 | 723.22 | 719.23
x1 = 0.1985 | 760.34 | 757.95 | 753.95 | 749.94 | 745.93 | 741.89 | 737.84
x1 = 0.2542 | 771.77 | 769.36 | 765.34 | 761.3 | 757.25 | 753.19 | 749.11
x1 = 0.2998 | 781.58 | 779.16 | 775.11 | 771.05 | 766.97 | 762.89 | 758.79
x1 = 0.4005 | 804.92 | 802.47 | 798.37 | 794.26 | 790.14 | 786 | 781.85
x1 = 0.4966 | 829.64 | 827.16 | 823.01 | 818.85 | 814.68 | 810.5 | 806.31
x1 = 0.5998 | 859.12 | 856.6 | 852.4 | 848.19 | 843.96 | 839.73 | 835.48
x1 = 0.6996 | 891.01 | 888.45 | 884.18 | 879.91 | 875.63 | 871.34 | 867.05
x1 = 0.7999 | 926.93 | 924.34 | 920 | 915.67 | 911.33 | 906.99 | 902.64
x1 = 0.9001 | 967.24 | 964.61 | 960.22 | 955.83 | 951.44 | 947.05 | 942.65
x1 = 0.9497 | 988.96 | 986.32 | 981.91 | 977.49 | 973.08 | 968.67 | 964.25
x1 = 0.9805 | 1003.05 | 1000.4 | 995.97 | 991.55 | 987.13 | 982.7 | 978.27
x1 = 1 | 1012.21 | 1009.55 | 1005.12 | 1000.69 | 996.26 | 991.83 | 987.4
